Measured values: patent US7795215B2, “MNTF peptides and compositions and methods of use” (Genervon Biopharmaceuticals LLC, priority 2003, dated 2010)
Entries after “also recorded” stand apart in the source; their conditions may differ. Where no end group is shown, it is not given here.

Tests used:
[1] = system: VSC4.1 cells, a motor neuron/neuroblastoma cell hybrid; experiment: VSC4.1 cell proliferation assay (BrdU); assay type: cell-based; details: for Biological Function / OD (optimal dose): VSC4.1 proliferation; for maximal increase in cell proliferation: % increase over control; for stimulation of VSC4.1 cell proliferation over controls: second round of experiments
Protocol: Studies of proliferation were performed in 96 well plates utilizing a cell proliferation assay kit from Roche Diagnostics GmbH (Mannheim, Germany). VSC4.1 cells, a motor neuron/neuroblastoma cell hybrid, were cultured in DMEM with 2% FBS containing either no MNTF or a dose range of MNTF from 10^−8 to 10^−5 g/ml. Each treatment was applied in triplicate wells. The cells were cultured for 21 hours and 5-bromo-2′-deoxyuridine (BrdU) from the assay kit was added to each well. After BrdU labeling for 3 hours, the cells were washed, fixed and dried. The cells were then fixed and the DNA denatured to improve access for the subsequent antibody binding. POD-labeled mouse monoclonal anti-BrdU antibody from the assay kit was applied for 2 hours, followed by a wash. The assay was quantitated by adding the colorimetric assay solution (tetramethyl benzidine) and reading at 450 nm on a Wallac Vector 2 plate reader. Cells in the treatment groups were quantitated by comparing to wells plated with a gradient of cells from 0 to 20,000 cells/well on the same plate. Data is expressed as % of control to allow for variability from plate to plate.
Additional cell proliferation assays, conducted essentially as described above, were performed to compare the effects of several GLP grade MNTF peptides.
Further cell proliferation studies were performed, essentially as described above, to test the response of the motor neuron/neuroblastoma cells to three new preparations of MNTF. The MNTF preparations utilized for these assays were: […]

rat femoral nerve = experiment: Femoral nerve model, MNTF pump experiments (Preferential Motor Reinnervation); assay type: in vivo
Protocol: The specificity of motor axon regeneration was investigated in the rat femoral nerve. Proximally, at the site of nerve transection and suture, axons that contribute to both cutaneous and muscle branches intermingle throughout the nerve. As these axons regenerate, they have equal access to neighboring motor and sensory Schwann cell tubes in the distal nerve stump. This assures an element of “choice” at the axonal level. Distally, where the specificity of regeneration is assessed, axons are segregated into terminal cutaneous and muscle branches. Motor axons are normally found only in the muscle branch, so any motor reinnervation of the cutaneous branch represents a pathfinding failure. The specificity of axon regeneration is evaluated by simultaneous application of horseradish peroxidase (HRP) to one distal femoral branch and fluoro-gold (FG) to the other. Motor-axon regeneration is random at 3 weeks, but the number of correct projections to muscle increases dramatically at later times. Many neurons initially contain both tracers, and thus project collaterals to both cutaneous and muscle branches. The number of these double-labeled neurons decreases with time. Motor axon collaterals are thus pruned from the cutaneous branch, increasing the number of correct projections to muscle at the expense of double-labeled neurons. A specific interaction thus occurs between regenerating motor axons and muscle and/or muscle nerve that we have termed Preferential Motor Reinnervation (PMR).
In preliminary experiments we attempted to modify motor axon regeneration in the femoral nerve by pumping MNTF 33mer at 10^−4 M onto the repair site, using an Alzet osmotic pump which discharges for at least 2 weeks. The output of the pump was sewn to muscle adjacent to the nerve repair, so that the nerve wound would be continuously bathed with the factor. Reinnervation of the distal femoral cutaneous and muscle branches was quantified with tracers as described above.
In a follow-up experiment MNTF 33mer was administered to eight transected and sutured rat femoral nerves at 10^−4 M, essentially as described above. Controls were a group of six nerves that underwent routine suture with pumps delivering saline but no MNTF. A mean of 100 motoneurons projected correctly in the six controls, whereas a mean of 87 motoneurons projected incorrectly to skin.
To determine if a truncated MNTF peptide could be substituted for MNTF 33mer, subsequent experiments were performed, essentially as described above, using the MNTF 6mer FSRYAR, at 10^−4 M (n=8), 10^−5 M (n=8) and 10^−6 M (n=8), with a total of 22 saline controls for comparison. […] Thus the 6mer is capable of promoting selective reinnervation of target muscles in a manner similar to the MNTF1 33mer.

[2] = second set, FIG. 3, highest dose
[3] = earliest studies, FIG. 2, listed as GLP grade MNTF 33mer
[4] = earliest studies, FIG. 2, listed as MNTF 33mer (research grade)
[5] = follow-up experiment, 10^−4 M, eight nerves, saline pump controls
[6] = preliminary experiments, 10^−4 M by Alzet osmotic pump, three weeks, three animals
[7] = 10^−4 M, 10^−5 M and 10^−6 M, FIG. 5, vs saline controls

Substance	Biological Function ([1]; assay set Oct. 27, 2002)	dose of maximal response ([1]; earliest studies, FIG. 2) [µg/mL]	relative effectiveness in proliferation assay (words) ([1]; earliest studies, FIG. 2)	maximal increase in cell proliferation ([1]; earliest studies, FIG. 2) [%]	effect on proliferation of motor neuron/neuroblastoma cells (summary in description) ([1]; in vitro)	Biological Function ([1]; assay set Aug. 4, 2003)	OD (optimal dose) ([1]; assay set Aug. 4, 2003) [µg/mL]	relative effectiveness in proliferation assay (words) ([1]; third set, FIG. 4)	Biological Function ([1]; assay set Mar. 28, 2003)	OD (optimal dose) ([1]; assay set Mar. 28, 2003) [µg/mL]	OD (optimal dose) ([1]; assay set Oct. 27, 2002) [µg/mL]	relative effectiveness in proliferation assay (words) ([1]; second set, FIG. 3)	further results
cyclized MNTF 13mer: cyclized version of the 13-mer CWMLSAFSRYARC, SEQ ID NO:6, research grade (also: cyclized)	Limited Efficacy.	1	least effective of all peptides tested	17.3	not as effective at stimulating cell proliferation in vitro	–	–	–	–	–	–	–	effect on proliferation at higher doses ([1]; earliest studies, FIG. 2, higher doses): appeared to inhibit proliferation; relative effectiveness in proliferation assay (words) ([1]; earliest studies, FIG. 2, listed as cyclized 13mer): markedly less effective
MLSAFSRYARCLAEGHDGPTQ [21mer]	–	–	–	–	sufficient to increase cell proliferation of motor neuron/neuroblastoma cells	Effective	0.1	significantly (p<0.05) stimulated proliferation over control; also recorded: about half that of the other two MNTF isoforms	–	–	–	–	–
WMLSAFS [7mer]	Effective	1	markedly less effective	25.1	potent stimulator of motor neuron/neuroblastoma cells in vitro over a broad range of dosage levels	–	–	–	Effective	100	1	most potent preparation across the whole dose range; also recorded: most active proliferative agent	relative effectiveness in proliferation assay (words) ([1]; earliest studies, FIG. 2, listed as MNTF 7mer): broader active dose range than the other preparations; stimulation of VSC4.1 cell proliferation over controls [1]: 350%; fold increase in proliferation [1, 2]: ~3.5 fold; fold increase in proliferation ([1]; second set, FIG. 3, lowest dose applied): 2.5 fold
33mer: 33 amino acid MNTF1-F6 fragment, SEQ ID NO:1, made by solid phase synthesis; positive control in cell proliferation assays (LGTFWGDTLNCWMLSAFSRYARCLAEGHDGPTQ) [reference compound]	Effective	–	–	–	effective at increasing the proliferation of motoneuron/neuroblastoma cells	Effective	0.01	significantly (p<0.05) stimulated proliferation over control; also recorded: nearly as well as the 10mer at low doses; also recorded: clearly superior to the 21mer	Effective	–	–	–	OD (optimal dose) ([1]; assay set Mar. 28, 2003, listed as 33mer GLPg, L): 10 µg/mL; OD (optimal dose) ([1]; assay set Mar. 28, 2003, listed as 33mer Rg, L): 100 µg/mL; OD (optimal dose) ([1]; assay set Oct. 27, 2002, listed as 33mer GLPg, L): 0.1 µg/mL; OD (optimal dose) ([1]; assay set Oct. 27, 2002, listed as 33mer Rg, L): 10 µg/mL; maximal increase in cell proliferation [1, 3]: 34.3%; maximal increase in cell proliferation [1, 4]: 31.7%; relative effectiveness in proliferation assay (words) ([1]; earliest studies, FIG. 2, listed as GLP grade 33mer): most biologically active; dose of maximal response [1, 3]: 0.1 µg/mL; relative effectiveness in proliferation assay (words) [1, 3]: most effective in this assay; dose of maximal response [1, 4]: 10 µg/mL; peak fold response in proliferation ([1]; second set, FIG. 3, at 10 μg/ml): 3 fold; fold increase in proliferation [1, 2]: ~3 fold; correct projections of motoneurons to muscle (mean) (rat femoral nerve; [5]): 173; incorrect projections of motoneurons to skin (mean) (rat femoral nerve; [5]): 59; correct projections of motoneurons to muscle (mean) (rat femoral nerve; [6]): 210; incorrect projections of motoneurons to skin (mean) (rat femoral nerve; [6]): 31
FSRYARCLAEG [11mer]	Effective	10	comparably effective	32.2	sufficient to increase cell proliferation of motor neuron/neuroblastoma cells	–	–	–	Effective	1	10	poorest performers; also recorded: less effectively than the others	fold increase in proliferation ([1]; second set, FIG. 3, at 1 μg/ml): ~2.5 fold
MLSAFSRYAR [10mer]	–	–	–	–	at least as effective the full-length MNTF 33mer	Effective	0.01	significantly (p<0.05) stimulated proliferation over control; also recorded: most active proliferative agent; also recorded: clearly superior to the 21mer	–	–	–	–	lowest concentration at which at least as effective as MNTF 33mer ([1]; in vitro): 0.01 µg/mL; increase in proliferation over controls ([1]; third set, FIG. 4, three lowest doses used): ~200%
FSRYAR [6mer]	Effective	10	comparably effective	35.1	sufficient to increase cell proliferation of motor neuron/neuroblastoma cells	–	–	–	Effective	1	10	poorest performers; also recorded: less effectively than the others	fold increase in proliferation ([1]; second set, FIG. 3, at 1 μg/ml): ~2.5 fold; correct projections (rat femoral nerve; [7]): significant increases in correct projections at every dose tested; incorrect projections to skin (rat femoral nerve; [7]): marked reductions in the number of incorrect projections to skin
CWMLSAFSRYARC [13mer]	–	–	–	–	sufficient to increase cell proliferation of motor neuron/neuroblastoma cells	–	–	–	Effective	0.1	–	some efficacy at the lowest dose, this effect fell off at higher doses	stimulation of VSC4.1 cell proliferation over controls [1]: ≥ 250%
Cyclized MNTF 33mer: cyclized version of the MNTF1 33-mer, SEQ ID NO:1, research grade (LGTFWGDTLNCWMLSAFSRYARCLAEGHDGPTQ; also: cyclized)	Limited Efficacy.	0.1	limited efficacy	12.9	less effective	–	–	–	–	–	–	–	relative effectiveness in proliferation assay (words) ([1]; earliest studies, FIG. 2, listed as cyclized MNTF 33mer): very weak proliferative activity at low doses
